Assay results: ChEMBL document CHEMBL2412957, “Synthesis and SAR of 4-aminocyclopentapyrrolidines as orally active N-type calcium channel inhibitors for inflammatory and neuropathic pain” (Bioorg Med Chem Lett, 2013)
Values after ≈ are worked out from the molar mass of the structure shown.

biological target: Voltage-dependent N-type calcium channel subunit alpha-1B (Homo sapiens, UniProt Q00975); assay: Inhibition of N-type Cav2.2 channel (unknown origin) by FLIPR assay; settings: read-out: IC50
Sequence (Q00975 whole entry): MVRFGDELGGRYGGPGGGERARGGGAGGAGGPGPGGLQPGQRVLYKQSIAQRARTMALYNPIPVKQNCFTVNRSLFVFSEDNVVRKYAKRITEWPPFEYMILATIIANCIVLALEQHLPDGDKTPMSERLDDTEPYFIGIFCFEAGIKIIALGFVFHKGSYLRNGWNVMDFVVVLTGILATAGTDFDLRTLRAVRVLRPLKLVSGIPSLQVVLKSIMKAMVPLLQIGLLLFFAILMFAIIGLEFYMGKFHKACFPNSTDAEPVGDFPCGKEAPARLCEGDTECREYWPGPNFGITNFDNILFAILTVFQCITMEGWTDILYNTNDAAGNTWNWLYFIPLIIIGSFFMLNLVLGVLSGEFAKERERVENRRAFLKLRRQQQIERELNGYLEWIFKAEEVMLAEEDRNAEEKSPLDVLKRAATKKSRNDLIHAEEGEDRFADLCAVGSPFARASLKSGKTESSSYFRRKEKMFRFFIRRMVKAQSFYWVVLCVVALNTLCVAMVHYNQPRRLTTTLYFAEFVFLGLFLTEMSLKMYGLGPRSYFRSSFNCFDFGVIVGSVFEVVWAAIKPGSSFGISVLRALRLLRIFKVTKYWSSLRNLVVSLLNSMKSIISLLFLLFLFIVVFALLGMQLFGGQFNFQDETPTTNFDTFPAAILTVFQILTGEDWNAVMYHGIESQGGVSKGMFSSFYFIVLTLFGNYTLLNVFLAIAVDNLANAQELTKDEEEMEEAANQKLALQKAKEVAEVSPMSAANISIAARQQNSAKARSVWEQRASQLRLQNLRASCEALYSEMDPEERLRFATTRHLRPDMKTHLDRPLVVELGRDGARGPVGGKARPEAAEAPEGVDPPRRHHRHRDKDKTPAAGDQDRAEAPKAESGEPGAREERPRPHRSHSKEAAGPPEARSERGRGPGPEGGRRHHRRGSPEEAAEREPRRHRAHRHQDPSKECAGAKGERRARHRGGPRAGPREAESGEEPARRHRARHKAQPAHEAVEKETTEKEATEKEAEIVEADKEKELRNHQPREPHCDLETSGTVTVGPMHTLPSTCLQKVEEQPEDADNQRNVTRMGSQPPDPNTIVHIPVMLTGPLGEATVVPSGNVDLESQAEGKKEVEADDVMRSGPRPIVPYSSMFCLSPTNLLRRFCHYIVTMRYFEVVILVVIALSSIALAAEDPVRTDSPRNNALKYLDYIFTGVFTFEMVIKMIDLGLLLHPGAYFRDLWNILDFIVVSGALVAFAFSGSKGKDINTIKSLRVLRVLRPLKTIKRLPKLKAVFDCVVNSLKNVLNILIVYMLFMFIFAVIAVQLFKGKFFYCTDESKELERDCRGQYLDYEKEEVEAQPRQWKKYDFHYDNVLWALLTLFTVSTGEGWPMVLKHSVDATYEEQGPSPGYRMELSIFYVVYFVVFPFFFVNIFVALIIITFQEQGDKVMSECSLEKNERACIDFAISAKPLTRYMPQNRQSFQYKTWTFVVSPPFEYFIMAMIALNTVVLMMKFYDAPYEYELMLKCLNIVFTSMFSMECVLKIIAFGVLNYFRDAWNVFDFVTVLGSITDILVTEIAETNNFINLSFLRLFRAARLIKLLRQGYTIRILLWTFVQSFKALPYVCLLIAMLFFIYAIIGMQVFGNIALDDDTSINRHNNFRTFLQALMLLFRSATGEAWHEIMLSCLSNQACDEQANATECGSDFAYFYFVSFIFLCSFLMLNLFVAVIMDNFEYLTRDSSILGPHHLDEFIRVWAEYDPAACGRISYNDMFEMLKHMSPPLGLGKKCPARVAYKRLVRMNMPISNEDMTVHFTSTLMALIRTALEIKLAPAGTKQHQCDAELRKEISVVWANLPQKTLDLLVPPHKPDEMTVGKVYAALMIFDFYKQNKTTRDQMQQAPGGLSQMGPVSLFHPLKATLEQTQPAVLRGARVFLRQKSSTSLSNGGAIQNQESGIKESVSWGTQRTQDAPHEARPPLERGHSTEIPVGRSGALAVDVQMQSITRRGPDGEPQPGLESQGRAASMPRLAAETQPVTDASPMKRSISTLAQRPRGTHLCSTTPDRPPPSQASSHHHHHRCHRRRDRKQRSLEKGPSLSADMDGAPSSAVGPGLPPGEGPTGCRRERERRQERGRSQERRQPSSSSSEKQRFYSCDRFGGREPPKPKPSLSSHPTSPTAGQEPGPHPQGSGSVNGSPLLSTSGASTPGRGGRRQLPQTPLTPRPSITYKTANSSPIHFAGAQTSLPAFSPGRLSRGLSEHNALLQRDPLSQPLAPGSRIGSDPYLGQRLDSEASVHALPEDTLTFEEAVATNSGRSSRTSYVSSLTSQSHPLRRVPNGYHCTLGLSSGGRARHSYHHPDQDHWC

| SMILES | IC50 [µM] |
| --- | --- |
| CC(C)(C)[C@H](N)C(=O)N[C@H]1CC[C@@H]2CN(S(=O)(=O)c3ccc(C(F)(F)F)cc3)C[C@@H]21 | 1.51 |
| CN[C@@H](Cc1ccccc1)C(=O)N[C@H]1CC[C@@H]2CN(S(=O)(=O)c3ccc(C(F)(F)F)cc3)C[C@@H]21 | 0.86 |
| CC(C)(C)C[C@H](N)C(=O)N[C@H]1CC[C@@H]2CN(S(=O)(=O)c3ccc(C(F)(F)F)cc3)C[C@@H]21 | 0.87 |
| CCCC[C@H](NC)C(=O)N[C@H]1CC[C@@H]2CN(S(=O)(=O)c3ccc(C(F)(F)F)cc3)C[C@@H]21 | 0.75 |
| CN[C@@H](CC(C)(C)C)C(=O)N[C@H]1CC[C@@H]2CN(S(=O)(=O)c3ccc(C(F)(F)F)cc3)C[C@@H]21 | 0.79 |
| CCN[C@@H](CC(C)(C)C)C(=O)N[C@H]1CC[C@@H]2CN(S(=O)(=O)c3ccc(C(F)(F)F)cc3)C[C@@H]21 | 0.49 |

Continued, values first:

| IC50 [µM] | SMILES |
| --- | --- |
| 1.87 | O=C(N[C@@H]1CC[C@H]2CN(Cc3cccc(C(F)(F)F)c3)C[C@H]21)C(C1CCCCC1)C1CCCCC1 |
| 1.89 | CN[C@@H](CC(C)C)C(=O)N[C@@H]1CC[C@H]2CN(Cc3cccc(C(F)(F)F)c3)C[C@H]21 |

same assay, conditions: read-out: pIC50 (converted)

| SMILES | IC50 [µM] |
| --- | --- |
| CN[C@@H](CC(C)C)C(=O)N[C@H]1CC[C@@H]2CN(c3cccc(C(F)(F)F)c3)C[C@@H]21 | 1.17 |
| CC(C)(C)C[C@H](N)C(=O)N[C@H]1CC[C@@H]2CN(S(=O)(=O)c3ccc(C(F)(F)F)cc3)C[C@@H]21 | 0.933 |
| CN[C@@H](CC(C)(C)C)C(=O)N[C@H]1CC[C@@H]2CN(S(=O)(=O)c3ccc(C(F)(F)F)cc3)C[C@@H]21 | 0.832 |
| CCN[C@@H](CC(C)(C)C)C(=O)N[C@H]1CC[C@@H]2CN(S(=O)(=O)c3ccc(C(F)(F)F)cc3)C[C@@H]21 | 0.575 |

tested on: not listed separately; assay: Solubility of the compound by chemiluminescent nitrogen detection method; settings: not given

| SMILES | solubility [µM] |
| --- | --- |
| CC(C)(C)[C@H](N)C(=O)N[C@H]1CC[C@@H]2CN(S(=O)(=O)c3ccc(C(F)(F)F)cc3)C[C@@H]21 | 94 (≈ 42.1 µg/mL) |
| CC(C)(C)C[C@H](N)C(=O)N[C@H]1CC[C@@H]2CN(S(=O)(=O)c3ccc(C(F)(F)F)cc3)C[C@@H]21 | 68 (≈ 31.4 µg/mL) |
| CCCC[C@H](NC)C(=O)N[C@H]1CC[C@@H]2CN(S(=O)(=O)c3ccc(C(F)(F)F)cc3)C[C@@H]21 | 38 (≈ 17.5 µg/mL) |
| CN[C@@H](CC(C)(C)C)C(=O)N[C@H]1CC[C@@H]2CN(S(=O)(=O)c3ccc(C(F)(F)F)cc3)C[C@@H]21 | 76 (≈ 36.1 µg/mL) |
| CCN[C@@H](CC(C)(C)C)C(=O)N[C@H]1CC[C@@H]2CN(S(=O)(=O)c3ccc(C(F)(F)F)cc3)C[C@@H]21 | 20 (≈ 9.79 µg/mL) |

The next lines start with the values.

| solubility [µM] | SMILES |
| --- | --- |
| < 3 | O=C(N[C@H]1CC[C@H]2CN(Cc3cccc(C(F)(F)F)c3)C[C@H]21)C(C1CCCCC1)C1CCCCC1 |
| 56 (≈ 22.3 µg/mL) | CN[C@@H](CC(C)C)C(=O)N[C@H]1CC[C@@H]2CN(c3cccc(C(F)(F)F)c3)C[C@@H]21 |
| < 3 | O=C(N[C@@H]1CC[C@H]2CN(Cc3cccc(C(F)(F)F)c3)C[C@H]21)C(C1CCCCC1)C1CCCCC1 |
| 67 (≈ 27.6 µg/mL) | CN[C@@H](CC(C)C)C(=O)N[C@@H]1CC[C@H]2CN(Cc3cccc(C(F)(F)F)c3)C[C@H]21 |

biological target: Voltage-gated inwardly rectifying potassium channel KCNH2 (Homo sapiens, UniProt Q12809); assay: Inhibition of dofetilide binding to human ERG; settings: not given
Sequence (Q12809 whole entry): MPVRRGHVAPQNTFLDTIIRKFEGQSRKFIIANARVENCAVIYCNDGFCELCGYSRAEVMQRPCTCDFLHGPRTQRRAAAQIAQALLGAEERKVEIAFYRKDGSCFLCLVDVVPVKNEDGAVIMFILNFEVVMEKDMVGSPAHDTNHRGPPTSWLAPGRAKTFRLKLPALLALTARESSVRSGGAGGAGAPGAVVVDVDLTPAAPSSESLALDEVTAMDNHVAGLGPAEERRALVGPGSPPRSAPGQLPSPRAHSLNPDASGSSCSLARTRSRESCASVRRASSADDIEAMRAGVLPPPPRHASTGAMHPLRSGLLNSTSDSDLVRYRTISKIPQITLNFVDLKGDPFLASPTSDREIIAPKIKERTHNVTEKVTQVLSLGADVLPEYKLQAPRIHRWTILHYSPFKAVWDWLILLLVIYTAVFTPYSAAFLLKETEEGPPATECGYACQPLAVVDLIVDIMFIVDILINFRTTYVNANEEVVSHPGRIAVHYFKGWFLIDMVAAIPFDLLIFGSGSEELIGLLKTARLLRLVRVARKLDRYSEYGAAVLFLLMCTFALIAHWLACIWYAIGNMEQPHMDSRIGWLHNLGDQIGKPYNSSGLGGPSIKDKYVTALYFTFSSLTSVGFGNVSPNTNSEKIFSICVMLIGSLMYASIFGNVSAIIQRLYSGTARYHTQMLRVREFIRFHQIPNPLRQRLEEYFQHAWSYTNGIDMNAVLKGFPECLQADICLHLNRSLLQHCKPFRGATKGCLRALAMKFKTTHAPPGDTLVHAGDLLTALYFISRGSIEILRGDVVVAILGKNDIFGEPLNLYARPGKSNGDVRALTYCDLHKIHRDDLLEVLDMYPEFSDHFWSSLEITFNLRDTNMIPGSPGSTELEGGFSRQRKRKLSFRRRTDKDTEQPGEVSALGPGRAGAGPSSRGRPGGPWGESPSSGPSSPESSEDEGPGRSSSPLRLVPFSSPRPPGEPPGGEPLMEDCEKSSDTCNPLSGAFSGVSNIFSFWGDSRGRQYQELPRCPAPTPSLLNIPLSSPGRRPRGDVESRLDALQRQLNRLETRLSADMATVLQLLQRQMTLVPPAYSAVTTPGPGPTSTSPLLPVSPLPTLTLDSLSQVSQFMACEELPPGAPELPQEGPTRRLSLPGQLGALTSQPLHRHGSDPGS

| SMILES | Ki [µM] |
| --- | --- |
| O=C(N[C@H]1CC[C@H]2CN(Cc3cccc(C(F)(F)F)c3)C[C@H]21)C(C1CCCCC1)C1CCCCC1 | 0.69 |
| O=C(N[C@@H]1CC[C@H]2CN(Cc3cccc(C(F)(F)F)c3)C[C@H]21)C(C1CCCCC1)C1CCCCC1 | 9.52 |

tested on: not listed separately; assay: Metabolic stability in human liver microsomes assessed as compound remaining after 30 mins; assay type: ADME, Microsome; settings: read-out: Stability

| SMILES | remaining at 0.5 h [%] |
| --- | --- |
| CC(C)(C)[C@H](N)C(=O)N[C@H]1CC[C@@H]2CN(S(=O)(=O)c3ccc(C(F)(F)F)cc3)C[C@@H]21 | 75.6 |
| CN[C@@H](Cc1ccccc1)C(=O)N[C@H]1CC[C@@H]2CN(S(=O)(=O)c3ccc(C(F)(F)F)cc3)C[C@@H]21 | 26.8 |
| CC(C)(C)C[C@H](N)C(=O)N[C@H]1CC[C@@H]2CN(S(=O)(=O)c3ccc(C(F)(F)F)cc3)C[C@@H]21 | 41.8 |
| CCCC[C@H](NC)C(=O)N[C@H]1CC[C@@H]2CN(S(=O)(=O)c3ccc(C(F)(F)F)cc3)C[C@@H]21 | 51.1 |
| CN[C@@H](CC(C)(C)C)C(=O)N[C@H]1CC[C@@H]2CN(S(=O)(=O)c3ccc(C(F)(F)F)cc3)C[C@@H]21 | 33.6 |
| CCN[C@@H](CC(C)(C)C)C(=O)N[C@H]1CC[C@@H]2CN(S(=O)(=O)c3ccc(C(F)(F)F)cc3)C[C@@H]21 | 22.8 |

Other lines, results leading:

| remaining at 0.5 h [%] | SMILES |
| --- | --- |
| 0.5 | O=C(N[C@H]1CC[C@H]2CN(Cc3cccc(C(F)(F)F)c3)C[C@H]21)C(C1CCCCC1)C1CCCCC1 |
| 73 | CN[C@@H](CC(C)C)C(=O)N[C@H]1CC[C@@H]2CN(c3cccc(C(F)(F)F)c3)C[C@@H]21 |
| 1.2 | O=C(N[C@@H]1CC[C@H]2CN(Cc3cccc(C(F)(F)F)c3)C[C@H]21)C(C1CCCCC1)C1CCCCC1 |
| 19.4 | CN[C@@H](CC(C)C)C(=O)N[C@@H]1CC[C@H]2CN(Cc3cccc(C(F)(F)F)c3)C[C@H]21 |

tested on: not listed separately; assay: Metabolic stability in rat liver microsomes assessed as compound remaining after 30 mins; assay type: ADME, Microsome; settings: read-out: Stability

| SMILES | remaining at 0.5 h [%] |
| --- | --- |
| CC(C)(C)[C@H](N)C(=O)N[C@H]1CC[C@@H]2CN(S(=O)(=O)c3ccc(C(F)(F)F)cc3)C[C@@H]21 | 77.1 |
| CN[C@@H](Cc1ccccc1)C(=O)N[C@H]1CC[C@@H]2CN(S(=O)(=O)c3ccc(C(F)(F)F)cc3)C[C@@H]21 | 26.2 |
| CC(C)(C)C[C@H](N)C(=O)N[C@H]1CC[C@@H]2CN(S(=O)(=O)c3ccc(C(F)(F)F)cc3)C[C@@H]21 | 79.4 |
| CCCC[C@H](NC)C(=O)N[C@H]1CC[C@@H]2CN(S(=O)(=O)c3ccc(C(F)(F)F)cc3)C[C@@H]21 | 66.4 |
| CN[C@@H](CC(C)(C)C)C(=O)N[C@H]1CC[C@@H]2CN(S(=O)(=O)c3ccc(C(F)(F)F)cc3)C[C@@H]21 | 66.5 |
| CCN[C@@H](CC(C)(C)C)C(=O)N[C@H]1CC[C@@H]2CN(S(=O)(=O)c3ccc(C(F)(F)F)cc3)C[C@@H]21 | 89.2 |

Other lines, results leading:

| remaining at 0.5 h [%] | SMILES |
| --- | --- |
| 0.1 | O=C(N[C@H]1CC[C@H]2CN(Cc3cccc(C(F)(F)F)c3)C[C@H]21)C(C1CCCCC1)C1CCCCC1 |
| 81 | CN[C@@H](CC(C)C)C(=O)N[C@H]1CC[C@@H]2CN(c3cccc(C(F)(F)F)c3)C[C@@H]21 |
| 2.6 | O=C(N[C@@H]1CC[C@H]2CN(Cc3cccc(C(F)(F)F)c3)C[C@H]21)C(C1CCCCC1)C1CCCCC1 |
| 60.7 | CN[C@@H](CC(C)C)C(=O)N[C@@H]1CC[C@H]2CN(Cc3cccc(C(F)(F)F)c3)C[C@H]21 |
